Our source for the TGI and GI50 values is PubChem BioAssay (NCI).

Holding throughout (assay): inhibition of tumour cell growth, NCI panel, 48 h
Test [1] concerns NCI-H460 lung.
Test [2] concerns OVCAR-3 ovarian.
Test [3] deals with ACHN renal.
Test [4] relates to HS 578T breast.
Test [5] concerns TK-10 renal.
Test [6] has as its system HT29 colon.
The test system of test [7] is MOLT-4 leukemia.
For test [8], the system named is IGROV1 ovarian.
The test system of test [9] is DLD-1 colon.
Test [10] deals with DMS 273 small cell lung.
In test [11] the test system is LXFL 529 NSCLC.
For test [12], the system named is M19-MEL melanoma.

Structures are written as SMILES. “And” between values parts separate entries of the source, which are not always exact repeats. Equal values may be shown once.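 Five compound concentrations were applied to cells in 96-well plates for 48 hours; endpoints were derived by simple linear interpolation of the resulting dose-response curve. The concentration for 50% growth inhibition is given as GI50. TGI is the concentration that stops growth completely.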

Take `COc1cc(OC)c(/C=C\c2ccnc3ccccc23)c(OC)c1`: the TGI is 14.2 µM in [1]; 12.8 µM in [2]; 17.5 µM in test [3]; 12.1 µM in test [4]; 17.8 µM in test [5]; 11.8 µM in [6]. In addition, the results for the TGI in test [7] and in [8] were 11.8 µM and 15.5 µM, respectively.

Consider `C=CC(C1=CC(=O)C(OC)=CC1=O)c1ccccc1` (stereo unspecified), for which the TGI in [1] is 36.3 µM; in test [2], 31.2 µM; in test [3] it was 27.4 µM; in test [4] it was 69.7 µM; in [5], 32 µM; in [6] it was 42 µM. The TGI in test [7] came to 5.81 µM; in [8] it was 30.3 µM.

Regarding `CC1(C)C(O)C[C@@H](O)[C@@]2(C)C1CC[C@]1(C)C2C[C@@H](O)[C@@H]2C([C@@]3(C)CC[C@@H](C(C)(C)O)O3)CCC21C` (stereo partly specified), the TGI in test [9] turned out to be 31.5 µM; in test [1], 35.9 µM; in [2], 29.4 µM; in test [3], 35.8 µM; in test [10] it was 27.7 µM; in [11] it was 22.4 µM. Moreover, the TGI in test [5] is over 62.1 µM; in test [6], 31.6 µM; in [7], 67.7 µM; in test [8], 28.1 µM.

Turning to `COC(=O)C(CC(C)C)NC(=O)NC12CC3CC(CC(F)(C3)C1)C2` (stereo unspecified), the TGI in test [9], in test [1], in test [12], in [2], in test [3] and in test [11] was over 100 µM in each case. The TGI in test [5], in test [6], in [7] and in [8] was over 100 µM in each case.

On to `COc1ccc(C(SCC(N)C(=O)O)(c2ccccc2)c2ccccc2)cc1` (stereo unspecified), for which the GI50 in [1] is 0.23 µM; in test [2], 0.0677 µM; in test [3] it was 3.73 µM; in [4], 0.0432 µM; in test [5] it was 20.6 µM; in test [6], 0.429 µM. Besides, the GI50 is 0.439 µM in test [7] and 0.443 µM in test [8]. The TGI in test [1] was over 41.9 µM; in test [2] it was 0.503 µM; in test [3], over 100 µM; in test [4] it was 3.1 µM; in test [5], over 100 µM; in test [6], over 100 µM. The TGI in test [7] was over 100 µM; in test [8], over 82.3 µM.

Take `Clc1ccc2c(c1)N(CCCN1CCCC1)c1ccccc1S2`: the GI50 in test [1] is 15.2 µM; in [2], 10.4 µM; in test [3] it was 4.86 µM; in test [4], 4.92 µM; in test [5], 13 µM; in [6], 3.71 µM. Besides, the GI50 in test [7] is 4.09 µM; in test [8], 7.84 µM. Further, the TGI in test [1] turned out to be 35.4 µM; in test [2], 22.9 µM; in test [3], 17.9 µM; in test [4], 30.8 µM; in test [5] it was 26 µM; in [6] it was 12.9 µM. Also, the TGI worked out at 15.9 µM in test [7] and 23.3 µM in [8].

With `CN(C)CCNC(=O)C(C)(C)Oc1ccc(C(=O)c2ccc(Cl)cc2)cc1Cl`, the TGI was 20.4 µM in test [1]; 25.7 µM in test [2]; 23 µM in [3]; 23 µM in [4]; 23.7 µM in [5]; 8.18 µM and 9.21 µM in [6]. Also, the results for the TGI in test [7] and in test [8] were over 59.8 µM and 25.3 µM, respectively. Further, the GI50 in test [7] was 3.26 µM.

As for `Cl.Fc1c[c-]c(-c2ccccn2)c(F)c1.[Pt].c1ccc(P(c2ccccc2)C([PH+](c2ccccc2)c2ccccc2)[PH+](c2ccccc2)c2ccccc2)cc1`, the GI50 in test [1] was 3.08 µM; in [2], 2.68 µM; in test [3], 3.05 µM; in test [4], 2.92 µM; in [5] it was 2.67 µM; in [6] it was 3.23 µM. The GI50 in test [7] is 2.54 µM; in test [8], 3.16 µM. The TGI in test [1] is 11.5 µM; in [2] it was 8.06 µM; in test [3] it was over 100 µM; in test [4] it was 39 µM; in test [5] it was 11.9 µM; in [6], 21.6 µM. Besides, the TGI in test [7] and in test [8] was over 100 µM in each case.

Turning to `C[C@H](Nc1ncnc2nc[nH]c12)c1cc2ccc(F)cc2nc1-c1ccccn1`, the GI50 in [1] is over 100 µM; in [2], 34.3 µM; in test [3], 47.9 µM; in [4], 18.7 µM; in test [5], 47.4 µM; in [6], over 100 µM. In addition, the GI50 in [7] was 52.2 µM; in test [8] it was 20.4 µM. Further, the TGI in test [1], in [2], in [3], in test [4], in test [5] and in test [6] was over 100 µM in each case. Further, the TGI in [7] and in test [8] was over 100 µM in each case.

Consider `CCCCCCCCN(CCCCCCCC)CCCCCCNc1cc(OC)cc2cccnc12`, for which the GI50 is 8.27 µM in test [1]; 2.01 µM in test [2]; 11 µM in [3]; 11 µM in test [4]; 20.3 µM in test [5]; 3.63 µM in [6]. Further, the GI50 in test [7] was 16.3 µM; in [8] it was 13.2 µM. Also, the TGI in test [1] was 21.6 µM; in test [2], 4.09 µM; in test [3], 23.7 µM; in test [4] it was 29.7 µM; in test [5], 36 µM; in test [6] it was 15.9 µM. Further, the TGI is 42.9 µM in test [7] and 29.4 µM in test [8].

In the case of `COc1ccc2c(c1)[n+](=O)c(C(=O)c1ccco1)c(C(F)(F)F)n2[O-]`, the GI50 in [1] is 1.72 µM; in [2] it was 1.54 µM; in test [3] it was 0.514 µM; in test [4] it was 3.08 µM; in test [5], 8.56 µM; in test [6] it was 4.59 µM. The GI50 in test [7] was over 100 µM; in [8] it was 2.57 µM. Also, the TGI is 15.6 µM in [1]; 11.5 µM in test [2]; 2.53 µM in test [3]; 8.86 µM in test [4]; 60.4 µM in test [5]; over 100 µM in test [6]. Also, the TGI in test [7] is over 100 µM; in test [8], 20.4 µM.
